Assays:
in vitro = in vitro ADME; conditions: for Papp at 240 min, 100 μg mL^–1: PAMPA, pH 7.4, class from PAMPA-BBB Pe, read-out: CNS-permeability prediction; for PAMPA-BBB (Pe, 10^–6 cm s^–1): porcine brain lipid, PBS/EtOH (70:30), 240 min, 25 °C
[1] = system: NRF2-ARE signaling pathway; test: cells; format: cell-based; conditions: concentration required to double luciferase activity, AREc32 cells, 24 h
Procedure: AREc32 cells were plated in 96-well white plates (2 × 10^4 cells/well). […]. The AREc32 cells constitutively express the plasmid pGL-8xARE that implements eight copies of the EpRE sequences, followed by the luciferase reporter gene. Therefore, NRF2 induction is related to the activation of EpRE sequences, expressing luciferase at the same extent as EpRE sequences are activated. The Luciferase Assay System (Promega E1500) was used according to the provider’s protocol, and luminescence was quantified in an Orion II microplate luminometer (Berthold, Germany). Fold induction of luciferase activity was normalized to basal conditions. Data are expressed as CD values, expressing the concentration required to double the luciferase activity. CD values were calculated from dose–response curves generated from the fold induction of control conditions versus inducer concentration and fitted by nonlinear regression and data interpolated to twofold induction concentration.[68]

[2] = system: rat primary cortical neurons; test: Neuroprotection against OA-induced toxicity in rat primary cortical neuronal cultures (MTT); conditions: compound 1 μM, OA 10 nM
[3] = system: human neuroblastoma SH-SY5Y cell line; test: Cell viability per se in SH-SY5Y cells (MTT); conditions: 100 μM, 24 h
Procedure: The cells from the 3rd to 12th passage were seeded at a density of 80,000 cells/well in 96-well plates and were used to assess the properties of our compounds.
After treatment, the SH-SY5Y cells, rat primary neuronal cultures, and hippocampal slices were incubated for 90 min with tetrazolium salt MTT (0.5 mg/mL) solution. This assay is based on the reduction of MTT (yellow salt) to purple insoluble formazan crystals by oxidoreductase enzymes from living cells. Thereafter, in order to solubilize the formazan crystal, the cells/slices were incubated for another 45 min in dimethyl sulfoxide (DMSO). […] The basal absorbance was set to 100%, and the results were normalized to basal conditions.

adult mice NSCs = test: Neurogenic studies in SGZ-derived neurospheres; format: cell-based, mouse; conditions: 10 μM, data not shown
Procedure: Adult mice NSCs were isolated from SGZ of the dentate gyrus of the hippocampus and grown as free-floating neurospheres (NS).[72],[78] The neurogenic potential of each compound was determined using fluorescence confocal microscopy by quantifying the expression of two well-known neuronal markers: human β-III-tubulin (TuJ-1 clone) and microtubule-associated protein 2 (MAP-2). TuJ-1 is expressed in immature neurons, whereas the expression of MAP-2 indicates a consolidated mature neuronal stage.[79] Given that neurogenesis involves not only the proliferation of NSC but also the migration of newly generated cells, the greatest migration distance promoted by each compound was also measured (Figure 8).
Adult male C57BL/6 mice (3 months old) were used in order to determine neurogenesis activity. […] DAPI staining was used as a nuclear marker. Fluorescent representative images were acquired with a Nikon fluorescence microscope 90i coupled to a digital camera Qi. The microscope configuration was adjusted to produce the optimum signal-to-noise ratio. […] Quantification was undertaken using the image analySIS software (Soft Imaging System Corp., Münster, Germany) and normalized to total nuclei (DAPI-stained). The intensity of immunostaining of neurites from TuJ1-labeled cells and the number of MAP-2-positive cells were estimated from nine neurospheres per condition over three independent experiments. The outgrowth of the neurosphere cells was examined under a phase-contrast microscope and the farthest distance of cell migration was calculated from the edge of the sphere. At least 10 plated neurospheres per treatment were analyzed.

hMAO-B = target: T1, hMAO-B (Homo sapiens, UniProt P27338); test: biochemical; conditions: read-out: hMAO-B (IC50); recombinant hMAO-B, p-tyramine substrate
T1 sequence (P27338 1-520): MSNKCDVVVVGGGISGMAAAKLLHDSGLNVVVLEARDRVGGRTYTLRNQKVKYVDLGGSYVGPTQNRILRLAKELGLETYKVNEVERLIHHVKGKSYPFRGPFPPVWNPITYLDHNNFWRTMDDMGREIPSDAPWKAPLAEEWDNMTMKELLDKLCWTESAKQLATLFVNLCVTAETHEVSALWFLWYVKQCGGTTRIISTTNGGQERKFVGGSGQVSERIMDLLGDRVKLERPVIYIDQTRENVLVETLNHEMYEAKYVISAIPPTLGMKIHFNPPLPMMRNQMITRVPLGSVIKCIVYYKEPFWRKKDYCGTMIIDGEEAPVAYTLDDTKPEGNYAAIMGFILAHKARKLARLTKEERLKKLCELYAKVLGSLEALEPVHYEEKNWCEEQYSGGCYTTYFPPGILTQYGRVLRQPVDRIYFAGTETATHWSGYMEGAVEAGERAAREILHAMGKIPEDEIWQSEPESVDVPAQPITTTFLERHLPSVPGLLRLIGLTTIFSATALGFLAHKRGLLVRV
Procedure: (§1) The hMAO-A/B inhibition of all compounds was determined using the Amplex Red MAO assay kit.
(§2) Assays were performed following the general procedure previously described.[98] […] The specific fluorescence emission was calculated after subtracting the background activity, which was determined from wells containing all components except the hMAO isoforms, which were replaced with PBS.

hMAO-A = target: T2, hMAO-A (Homo sapiens, UniProt P21397); test: biochemical; conditions: read-out: hMAO-A (IC50); recombinant hMAO-A, p-tyramine substrate
T2 sequence (P21397 1-527): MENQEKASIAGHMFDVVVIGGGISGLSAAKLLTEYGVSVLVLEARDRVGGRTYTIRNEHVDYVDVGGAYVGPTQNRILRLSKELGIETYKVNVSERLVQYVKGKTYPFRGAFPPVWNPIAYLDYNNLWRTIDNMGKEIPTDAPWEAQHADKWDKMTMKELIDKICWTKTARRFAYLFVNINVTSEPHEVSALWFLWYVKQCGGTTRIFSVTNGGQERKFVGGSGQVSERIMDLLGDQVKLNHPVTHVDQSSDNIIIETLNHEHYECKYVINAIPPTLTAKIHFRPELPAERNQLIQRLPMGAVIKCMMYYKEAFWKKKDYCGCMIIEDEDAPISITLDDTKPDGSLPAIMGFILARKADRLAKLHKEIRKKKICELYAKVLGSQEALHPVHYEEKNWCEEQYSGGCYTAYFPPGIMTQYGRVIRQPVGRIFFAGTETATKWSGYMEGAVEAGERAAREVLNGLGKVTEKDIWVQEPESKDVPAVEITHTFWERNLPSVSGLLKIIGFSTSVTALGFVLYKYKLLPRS
Procedure: as §1, §2

[4] = Oxygen radical absorbance capacity (ORAC-FL) assay; conditions: trolox = 1.0
Procedure: 2,2′-Azobis-(amidinopropane) dihydrochloride (AAPH), trolox, and fluorescein (FL) were purchased from Sigma-Aldrich. The reaction was carried out in a 75 mM phosphate buffer (pH 7.4), and the final reaction mixture was 200 μL. […] Antioxidant curves (fluorescence vs time) were first normalized to the curve of the blank corresponding to the same assay, and the area under the curve (AUC) of fluorescence decay was calculated. The net AUC corresponding to a sample was calculated by subtracting the AUC corresponding to the blank. Regression equations between the net AUC and antioxidant concentration were calculated for all the samples.

QR2 = target: T3, QR2 (Mesocricetus auratus, UniProt A0ABM2YAB8); test: biochemical; conditions: for inhibition at 10 µM: read-out: QR2 percentage of inhibition (in brackets)
T3 sequence (A0ABM2YAB8 1-231): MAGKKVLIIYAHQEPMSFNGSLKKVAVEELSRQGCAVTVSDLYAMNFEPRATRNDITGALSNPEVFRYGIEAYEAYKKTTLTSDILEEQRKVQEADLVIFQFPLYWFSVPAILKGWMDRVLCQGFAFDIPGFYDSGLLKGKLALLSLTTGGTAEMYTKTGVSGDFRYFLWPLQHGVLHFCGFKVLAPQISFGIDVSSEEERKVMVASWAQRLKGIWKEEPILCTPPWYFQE
Procedure: The QR2 experiments were performed in membrane homogenates of hamster brains (https://www.eurofins.fr, catalog ref. 0088). […] First, radioligand displacement was measured at a fixed compound concentration (10 μM) in each receptor.

hMT2R = target: T4, hMT2R (Homo sapiens, UniProt P49286); test: hMT2R radioligand displacement in transfected CHO cells; conditions: read-out: hMT2R binding affinity (Ki)
T4 construct: host or cells: Chinese hamster ovary cells
T4 sequence (P49286 1-362): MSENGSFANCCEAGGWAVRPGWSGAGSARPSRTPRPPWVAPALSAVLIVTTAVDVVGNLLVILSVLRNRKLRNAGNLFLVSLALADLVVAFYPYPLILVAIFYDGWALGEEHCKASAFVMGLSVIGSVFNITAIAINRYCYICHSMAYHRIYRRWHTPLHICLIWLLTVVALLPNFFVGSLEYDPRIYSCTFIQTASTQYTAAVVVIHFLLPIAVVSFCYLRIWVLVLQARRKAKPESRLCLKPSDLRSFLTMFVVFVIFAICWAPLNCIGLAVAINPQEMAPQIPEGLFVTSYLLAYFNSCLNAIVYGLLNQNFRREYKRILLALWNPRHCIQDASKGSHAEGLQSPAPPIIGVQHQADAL
Procedure: Assays in MT1R and MT2R were carried out using human receptors that were stably transfected in Chinese hamster ovary cells (https://www.eurofins.fr, catalog refs. 1538 and 1687). The QR2 experiments were performed in membrane homogenates of hamster brains (https://www.eurofins.fr, catalog ref. 0088). […] First, radioligand displacement was measured at a fixed compound concentration (10 μM) in each receptor. […] (E)-Resveratrol and melatonin were tested for comparative purposes.

mouse hippocampal slices = conditions: 1 μM, OA 1 μM, 6 h
Procedure: Once the treatment was ended, the cell viability was measured by the MTT method, cell death with the fluorescent probe PI (1 μg/mL), and ROS production with the fluorescent probe H2DCFDA (10 μL/mL).
Fluorescence from whole slices was measured as the mean intensity with an inverted Nikon eclipse T2000-U microscope (Nikon Instruments). […] The results were normalized to the basal condition, which was considered as 100%. Image analysis was performed using Fiji software.

Compound	Papp at 240 min, 100 μg mL^–1 (in vitro)	PAMPA-BBB (Pe, 10^–6 cm s^–1) (in vitro)	NRF2 (CD, μM) [1]	neuroprotection against OA-induced toxicity [2]	reduction of cell viability [3]	capacity to differentiate NSCs (adult mice NSCs)	IC50 (hMAO-B)	IC50 (hMAO-A)	ORAC (trolox equiv) [4]	IC50 (QR2)	inhibition at 10 µM (QR2)	Ki (hMT2R)	cell viability (MTT) (mouse hippocampal slices)
C#CCn1nc(/C=C/c2ccccc2)oc1=O [4a, 5-[(E)-2-Phenylethenyl]-3-(prop-2-yn-1-yl)-1,3,4-oxadiazol-2(3H)-one]	> 4 ×10⁻⁶ cm/s	13.6 ± 0.5 10^–6 cm s^–1	16.9 ± 0.4 µM	not able to significantly reduce neuronal death	around 30%	poor capacity to differentiate NSCs	9.87 ± 1.22 µM	> 50 µM	<0.1 trolox equiv	> 10 µM	44%		
C#CCNC(=O)/C=C/c1cccc(OC)c1 [6d, (2E)-3-(3-Methoxyphenyl)-N-(prop-2-yn-1-yl)prop-2-enamide]	> 4 ×10⁻⁶ cm/s	4.1 ± 0.2 10^–6 cm s^–1					> 50 µM	> 50 µM	<0.1 trolox equiv	~10 µM	76%	1.4 µM	
Oc1ccc(/C=C/c2cc(O)cc(O)c2)cc1 [(E)-resveratrol, reference compound]			21.0 ± 2.0 µM		over 50%		29.9 ± 1.8 µM						significantly increased the cell viability to almost basal levels, in a similar way to resveratrol treatment
